# Patent publication US20100016247A1, “USING BUDDING YEAST TO SCREEN FOR INHIBITORS OF AURORA KINASES” (FLORIDA STATE UNIVERSITY RESEARCH FOUNDATION, priority 2008, published 2010)
# Like-named read-outs stand apart in the source and are kept apart here.
# Experiments:
# HepG2 cells = details: cited from earlier work
# [1] = test system: phosphorylated histone H3 (Ser10) in HepG2 cells; test: Western blotting of phosphorylated histone H3 (Ser10); type: cell-based, human; details: HepG2, 10 μg/ml, 24 hours
# Experimental: (§1) A549 cells in the exponential growth phase are treated with 0, 1.25, 2.5, 5, 7.5, or 10 μg/ml Jadomycin B for 24 hours, while Hela and HepG2 cells are treated with 0 or 10 μg/ml of Jadomycin B. Cells are washed with cold PBS and whole-cell extracts are prepared with RIPA lysis buffer containing 60 μg/ml of PMSF. Equal amounts of protein (30 μg) are resolved with 15% SDS-PAGE. After transfer, the membranes are incubated overnight with primary antibodies (1:1000) against phosphorylated histone H3 (Ser10) (Cell Signaling Technology) and β-tubulin (Santa Cruz Biotechnology) at 4° C. The membranes are then incubated with HRP-conjugated goat anti-rabbit secondary antibody (Santa Cruz) at 1:200 followed by Chemiluminescence staining (Millipore).
# [2] = test system: phosphorylated histone H3 (Ser10) in Hela cells; test: as above; type: cell-based, human; details: 10 μg/ml, 24 hours
# Experimental: as §1
# A549 cells [3] = test: Cell growth assay (MTT, cell counting); type: cell-based, human; details: for growth inhibition by MTT assay: A549, 48 hours
# Experimental: (§2) A549, Hela and MCF-7 cell lines are cultured in 96-well tissue culture plates at a cell density of 5,000 cells per well in RPMI-I640 or MEM containing 10% fetus bovine serum and 2 mM L-glutamine. After attachment overnight, the medium is replaced and cells are incubated with increasing concentrations of Jadomycin B or its two derivatives, Jadomycin S and T (ranging from 10^−4 M to 10^−8 M). After treatment for 48 hours, 3-(4,5-dimethylthiazol-2-yl)-2,5-diphenyltetrazolium bromide (MTT) assays are carried out in triplication. The concentration-viability curves are fitted and IC50 values are determined. Cells are also plated at a cell density of 10,000 cells per well in six-well tissue culture plates. After attachment overnight, cells are treated with 0, 5, or 10 μg/ml Jadomycin B for 96 hours. Cells are detached every 24 hr by trypsinization to count the cell number. All experiments are repeated three times.
# Hela cells = test: Cell growth assay (MTT, cell counting); type: cell-based, human; details: for growth inhibition by MTT assay: Hela, 48 hours
# Experimental: as §2
# MCF-7 cells = test: Cell growth assay (MTT, cell counting); type: cell-based, human; details: for growth inhibition by MTT assay: MCF-7, 48 hours
# Experimental: as §2
# [4] = test system: phosphorylated histone H3 (Ser10) in A549 cells; test: Western blotting of phosphorylated histone H3 (Ser10); type: cell-based, human; details: 24 hr
# Experimental: as §1, with “Cells” for “A549 cells in the exponential growth phase are treated with 0, 1.25, 2.5, 5, 7.5, or 10 μg/ml Jadomycin B for 24 hours, while Hela and HepG2 cells are treated with 0 or 10 μg/ml of Jadomycin B. Cells”
# wild-type yeast cells = test: Growth of wild-type yeast cultures by OD600; type: cell-based, Saccharomyces cerevisiae; details: 25° C.
# Experimental: (§3) Wild-type and ipl1-321 mutant yeast strains are used for this purpose. […] After incubation at about 25° C. for about 24 hrs, the growth of the yeast cultures in the presence of tested compounds is determined by measuring OD600.
# IM9/Bcl-2 cells = details: cited from earlier work
# A549 cells [5] = test: Hoechst 33342 staining, chromatin condensation and apoptotic body; type: cell-based, human; details: 5 μg/ml, 48 hours
# Experimental: Hoechst 33342 is a fluorescence dye that can be embedded in DNA double helix and emit blue fluorescence when excited with UV light. Treated and untreated A549 cell samples with 5 μg/ml Jadomycin B for 48 hours are stained with 100 ng/ml Hoechst 33342 for 10 minutes in dark. Stained cells are visualized with a Nikon ECLIPSS TE2000-U fluorescence microscope (Japan) at 100× and 400× magnification. Apoptotic cells show brightly stained nuclei because of the chromosome condensation and the appeared apoptotic bodies.
# H460 cells = details: cited from earlier work
# A549 cells [6] = test: FACS analysis of apoptosis and cell cycle distribution; type: cell-based, human; details: 5 μg/ml
# Experimental: A549 cells in exponential growth phase are treated with 0 or 5 μg/ml Jadomycin B for up to 48 hours. Cells collected at the indicated times are fixed and stained with Propidium Iodide (PI). FACS analysis is performed to determine the percentage of apoptotic cells and cell cycle distribution by using the EPICS XL flow cytometer and System II software.
# IM-9 cells = details: cited from earlier work
# [7] = test system: ipl1-321 mutant yeast cells; test: Growth of ipl1-321 mutant yeast cultures by OD600; type: cell-based, Saccharomyces cerevisiae; details: 25° C.; for growth inhibition of ipl1-321 cells: 10 μg/ml, 24 hr, vs untreated control
# Experimental: as §3
# [8] = molecular target: T1, purified recombinant human Aurora-B kinase (Homo sapiens, UniProt Q96GD4); test: In vitro Aurora-B kinase activity assay (ELISA kit); type: biochemical; details: for inhibitory effect on Aurora-B: same condition as FIG. 3A, data not shown
# T1 construct: purchased Cell Signaling Technology
# T1 sequence (Q96GD4 whole entry): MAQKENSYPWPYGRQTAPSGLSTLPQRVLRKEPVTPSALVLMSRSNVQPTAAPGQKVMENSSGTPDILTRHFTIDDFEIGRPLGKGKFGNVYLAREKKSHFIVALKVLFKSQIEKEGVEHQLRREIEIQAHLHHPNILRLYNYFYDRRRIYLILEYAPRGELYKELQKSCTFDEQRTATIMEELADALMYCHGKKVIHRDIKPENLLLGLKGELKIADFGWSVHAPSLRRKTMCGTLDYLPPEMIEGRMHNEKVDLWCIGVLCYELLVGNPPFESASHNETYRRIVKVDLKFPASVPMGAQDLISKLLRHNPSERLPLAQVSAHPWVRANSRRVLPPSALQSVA
# Experimental: To determine the inhibition of Aurora-B kinase activity by Jadomycin B, an Aurora-B kinase activity assay kit (Cell Signaling Technology) is used according to the manufacturer's instruction. Briefly, 100 ng of purified recombinant human Aurora-B kinase is added to a 100 μl reaction mixture containing 1× kinase buffer and 25 μM cold ATP in the presence of different concentrations of Jadomycin B (ranging from 10^−4 M to 10^−10 M). After incubation at room temperature for 15 min, biotinylated peptide substrate (Cell Signaling Technology) is added to each reaction mixture at a final concentration of 1.5 μM, and the mixtures are further incubated for 30 min. A parallel control experiment is performed under the same conditions without Jadomycin B. The reaction is stopped by addition of 50 μM EDTA (pH 8). The 25 μl reaction mixture is then transferred to a streptavidin-coated 96-well plate (PerkinElmer, Inc) and incubated at room temperature for 60 min. After washing three times with PBS/T, the […] (Ser10) antibody (Cell Signaling Technology) is added to the plate for further incubation at 37° C. for 120 min. After washing, FITC-labeled secondary antibody (Santa Cruz) is added. After incubation at room temperature for 30 min, the plate is finally washed five times, and the fluorescence signal is determined with BMG Polarstar Galaxy (Germany) at 535 nm. The inhibition ratio by Jadomycin B at each concentration is calculated according to the following equation: % Inhibition=100×(1−countstreated/countscontrol). The inhibition curve is then fitted by Originpro7.5 program and the IC50 value of Jadomycin B is determined.
# To determine the mode of inhibition of Aurora-B by Jadomycin B, the kinase activity is also examined in the presence of different concentrations of ATP (25, 50, 75, 100, and 200 μM). The inhibition ratio of Aurora-B kinase activity by Jadomycin B at various concentrations is calculated as described above and the inhibition curve is fitted. The IC50 value of Jadomycin B at each ATP concentration is then determined and a linear fit is made with all five IC50 values. The Ki is determined from the intercept of the plot of [ATP] versus IC50 values (IC50=Ki/Km[ATP]+Ki).
structure (smiles),measurement,setting,value
CC[C@H](C)[C@H]1C(=O)O[C@H]2c3cc(C)cc(O)c3C3=C(C(=O)c4c(O[C@H]5C[C@@H](O)[C@@H](O)[C@H](C)O5)cccc4C3=O)N12 [Jadomycin B],inhibition of proliferation,HepG2 cells,inhibits the proliferation
same,levels of phosphorylated histone H3,[1],significant decrease
same,levels of phosphorylated histone H3,[2],significant decrease
same,"growth curve, sensitivity of cell line","A549 cells [3]; A549, 0, 5 or 10 μg/ml, 96 hours, cell counting",sensitive
same,growth inhibition by MTT assay,A549 cells [3],most sensitive
same,"growth curve, sensitivity of cell line","Hela cells; Hela, 0, 5 or 10 μg/ml, 96 hours, cell counting",sensitive
same,"growth curve, sensitivity of cell line","MCF-7 cells; MCF-7, 0, 5 or 10 μg/ml, 96 hours, cell counting",sensitive
same,reduction of H3 phosphorylation (grayscale scanning),"[4]; A549, 2 μg/ml",28%
same,phosphorylated histone H3 band on western blot,"[4]; A549, 10 μg/ml",do not express any detectable phosphorylated histone H3
same,reduction of H3 phosphorylation (grayscale scanning),"[4]; A549, 10 μg/ml",73%
same,growth inhibition of wild-type cells,"wild-type yeast cells; 5 μg/ml, 24 hours",little growth inhibition
same,growth inhibition of wild-type cells,"wild-type yeast cells; 10 μg/ml, 24 hr",uninhibited
same,growth inhibition of wild-type cells,"wild-type yeast cells; 100 μg/ml, 24 hours",60%
same,inhibition of proliferation,IM9/Bcl-2 cells,inhibits the proliferation
same,apoptosis by Hoechst 33342 staining,A549 cells [5],more and more cells underwent apoptosis
same,inhibition of proliferation,H460 cells,inhibits the proliferation
same,effect on cell cycle,A549 cells [6],does not block cell cycle
same,increase of cells in S phase,A549 cells [6],2%
same,"percentage of apoptotic cells, treated versus untreated",A549 cells [6]; 3 hr,almost no difference
same,portion of apoptotic cells (sub-G1),A549 cells [6]; 12 hr,17.8%
same,portion of apoptotic cells (sub-G1),A549 cells [6]; 24 hr,44%
same,portion of apoptotic cells (sub-G1),A549 cells [6]; 48 hr,71.7%
same,inhibition of proliferation,IM-9 cells,inhibits the proliferation
same,growth inhibition of ipl1-321 mutant cells,"[7]; 5 μg/ml, 24 hours",50%
same,growth inhibition of ipl1-321 cells,[7],almost completely
same,IC50,"[8]; 25 μM ATP, ATP titration FIG. 3B, read-out: IC50 for Aurora-B at given ATP concentration",12.5 µM
same,IC50,"[8]; 25 μM ATP, fitted inhibition curve FIG. 3A, read-out: IC50 for inhibition of Aurora-B kinase activity",10.5 µM
same,IC50,"[8]; 50 μM ATP, read-out: IC50 for Aurora-B at given ATP concentration",16.6 µM
same,IC50,"[8]; 75 μM ATP, read-out: IC50 for Aurora-B at given ATP concentration",24.5 µM
same,IC50,"[8]; 100 μM ATP, read-out: IC50 for Aurora-B at given ATP concentration",32.2 µM
same,IC50,"[8]; 200 μM ATP, read-out: IC50 for Aurora-B at given ATP concentration",53.1 µM
same,Ki,[8]; from linear fit of IC50 versus [ATP],6.8 µM
same,mode of inhibition of Aurora-B kinase,"[8]; with respect to ATP, 5 ATP concentrations",competitive inhibition
"Cc1cc(O)c2c(c1)[C@@H]1OC(=O)[C@H](CO)N1C1=C2C(=O)c2cccc(O[C@H]3C[C@@H](O)[C@@H](O)[C@H](C)O3)c2C1=O [Jadomycin S, reference compound]",growth inhibition by MTT assay,A549 cells [3],inhibited growth
same,growth inhibition by MTT assay,Hela cells,inhibited growth
same,growth inhibition by MTT assay,MCF-7 cells,inhibited growth
same,growth inhibition of ipl1-321 cells,[7],neither shows inhibitory effect
same,inhibitory effect on Aurora-B,[8],no inhibitory activity is detected
"Cc1cc(O)c2c(c1)[C@@H]1OC(=O)[C@H]([C@H](C)O)N1C1=C2C(=O)c2cccc(O[C@H]3C[C@@H](O)[C@@H](O)[C@H](C)O3)c2C1=O [Jadomycin T, reference compound]",growth inhibition by MTT assay,A549 cells [3],inhibited growth
same,growth inhibition by MTT assay,Hela cells,inhibited growth
same,growth inhibition by MTT assay,MCF-7 cells,inhibited growth
same,growth inhibition of ipl1-321 cells,[7],neither shows inhibitory effect
same,inhibitory effect on Aurora-B,[8],no inhibitory activity is detected
